Results on 13 molecules are retold here after US7713994B2 (Wyeth LLC, priority 2005, dated 2010).

In one experiment the target is T1, cyclin D1/cdk 4 enzyme (Homo sapiens, UniProt P11802).
T1 construct: made in house; host or cells: Sf9 insect cells, recombinant baculovirus
In words: CDK4 ELISA kinase assay (phospho-Rb ser 795 detection). Format: biochemical. The gist of the method: (§1)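 Partially purified Sf9-expressed cyclin D1/CDK4, cyclin E/CDK2 or cyclin B/CDK1 phosphorylated plate-bound GST-Rb C-terminal fragment with 200 μM ATP at 30° C for 1 h.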
A general note: In an ELISA, binding on a coated surface is turned into a signal by an enzyme label.

The target in another experiment is T2, cyclin E/CDK2 enzyme (Homo sapiens, UniProt P24941).
T2 construct: made in house; host or cells: Sf9 insect cells, recombinant baculovirus
In words: CDK2 ELISA kinase assay (phospho-Rb ser 795 detection). It is filed as biochemical. The gist of the method:
as §1

Another experiment has as its system MCF-7. In words: Cytotoxicity assay (SRB), MCF-7. The following applies: MCF-7 cells, 3 days, SRB, read-out: In Vitro Cellular Activity IC50 MCF-7. It is filed as cell-based. The gist of the method:
(§2)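 Percentage survival is derived from SRB absorbance (540 nm) versus untreated cells. Exposures were 3 days, except 6 days for BT474, at 37 °C and 7% CO2.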

For another experiment, the system named is LoVo. In words: Cytotoxicity assay (SRB), LoVo. It is filed as cell-based. The following applies: LoVo cells, 3 days, SRB, read-out: In Vitro Cellular Activity IC50 LOVO. The method in brief:
as §2

A further experiment deals with HCT-116. Description: Cytotoxicity assay (SRB), HCT-116. It is filed as cell-based. Particulars: HCT116 cells, 3 days, SRB, read-out: In Vitro Cellular Activity IC50 HCT116. The method in brief:
as §2

The test system of another experiment is BT474. Description: Cytotoxicity assay (SRB), BT474. The following applies: BT474 cells, 6 days, SRB, read-out: In Vitro Cellular Activity IC50 BT474. It is filed as cell-based. The method in brief:
as §2

Another experiment has as its target T3, cyclin B/CDK1 enzyme (Homo sapiens, UniProt P06493).
T3 construct: purchased New England BioLabs; host or cells: Sf9 insect cells, recombinant baculovirus
Description: CDK1 ELISA kinase assay (phospho-Rb ser 795 detection). It is filed as biochemical. The method in brief: as §1

[1] abbreviates: In Vitro Enzyme Assays, 200 μM ATP, read-out: CDK4 IC50.
[2] abbreviates: In Vitro Enzyme Assays, read-out: CDK2 IC50.
Where [3] appears, read: In Vitro Enzyme Assays, read-out: CDK1 IC50.
Where [4] appears, read: In Vitro Enzyme Assay, cyclin D1/cdk 4, read-out: CDK4 IC50.
The mark [5] stands for this setting: In Vitro Enzyme Assay, cyclin E/CDK2, read-out: CDK2 IC50.
The mark [6] stands for this setting: In Vitro Enzyme Assay, cyclin B/CDK1, read-out: CDK1 IC50.

The structures appear in SMILES notation. Where two headings read alike, the source gives them in different places.

T3 sequence (P06493 whole entry): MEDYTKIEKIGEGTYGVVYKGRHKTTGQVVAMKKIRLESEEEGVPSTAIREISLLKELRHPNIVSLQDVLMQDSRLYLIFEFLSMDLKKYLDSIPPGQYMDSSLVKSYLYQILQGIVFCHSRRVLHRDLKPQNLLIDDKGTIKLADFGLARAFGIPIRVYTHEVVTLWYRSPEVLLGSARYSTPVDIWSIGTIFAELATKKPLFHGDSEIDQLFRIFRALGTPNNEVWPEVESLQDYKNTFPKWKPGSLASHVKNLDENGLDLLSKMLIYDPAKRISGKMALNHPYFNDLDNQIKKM
T3 sequence (P14635 whole entry partner): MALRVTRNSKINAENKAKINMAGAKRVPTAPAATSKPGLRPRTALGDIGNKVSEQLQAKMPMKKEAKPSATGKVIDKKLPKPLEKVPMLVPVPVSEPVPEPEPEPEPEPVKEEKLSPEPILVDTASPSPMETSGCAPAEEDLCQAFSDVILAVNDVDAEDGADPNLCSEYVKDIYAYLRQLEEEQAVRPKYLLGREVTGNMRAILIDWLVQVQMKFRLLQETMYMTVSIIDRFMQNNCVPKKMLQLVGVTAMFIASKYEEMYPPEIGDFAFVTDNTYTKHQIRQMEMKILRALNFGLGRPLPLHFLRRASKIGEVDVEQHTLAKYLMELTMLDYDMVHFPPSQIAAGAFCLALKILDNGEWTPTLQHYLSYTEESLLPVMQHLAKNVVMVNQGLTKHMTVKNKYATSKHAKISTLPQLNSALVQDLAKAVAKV
T1 sequence (P11802 whole entry, species assumed): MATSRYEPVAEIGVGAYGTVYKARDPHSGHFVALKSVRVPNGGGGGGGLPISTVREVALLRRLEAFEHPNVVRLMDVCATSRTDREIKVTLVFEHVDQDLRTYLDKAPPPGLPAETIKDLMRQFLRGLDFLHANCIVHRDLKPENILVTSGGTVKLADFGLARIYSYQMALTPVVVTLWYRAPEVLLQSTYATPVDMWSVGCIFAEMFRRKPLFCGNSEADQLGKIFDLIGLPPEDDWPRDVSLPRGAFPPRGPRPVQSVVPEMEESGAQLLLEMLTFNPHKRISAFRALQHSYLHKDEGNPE
T1 sequence (P24385 whole entry partner, species assumed): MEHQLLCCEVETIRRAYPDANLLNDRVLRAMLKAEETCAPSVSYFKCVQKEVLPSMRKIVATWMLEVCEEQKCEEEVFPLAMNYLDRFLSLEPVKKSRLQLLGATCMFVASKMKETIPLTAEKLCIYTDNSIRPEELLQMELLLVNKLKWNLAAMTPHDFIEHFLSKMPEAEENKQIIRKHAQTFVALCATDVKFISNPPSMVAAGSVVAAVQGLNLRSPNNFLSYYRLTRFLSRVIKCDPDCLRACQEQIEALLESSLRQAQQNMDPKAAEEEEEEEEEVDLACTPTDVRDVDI

Usually IC50 stands for the point on the concentration scale where inhibition reaches its midpoint. Consider `CN1CCN(c2ccc(N/C=C3\C(=O)NC(=O)c4ccc(-c5coc(CN6CCCC6)c5)cc43)nc2)CC1` [Example 449, (4Z)-4-({[5-(4-Methylpiperazin-1-yl)pyridin-2-yl]amino}methylene)-6-[5-(pyrrolidin-1-ylmethyl)-3-furyl]isoquinoline-1,3(2H,4H)-dione], for which the half-inhibitory concentration (IC50) was 3.6 µM at cyclin D1/cdk 4 enzyme (setting [1]); above 50 µM at cyclin E/CDK2 enzyme (setting [2]); 3.5 µM in the experiment with MCF-7 (Homo sapiens, MCF7, 72 h); 2.2 µM in the experiment on LoVo (Homo sapiens, LoVo, 72 h); 2.6 µM in the experiment on HCT-116 (Homo sapiens, HCT-116, 72 h); 8.1 µM in the experiment with BT474 (Homo sapiens, BT-474, 144 h). For the same molecule, the IC50 on cyclin B/CDK1 enzyme (setting [3]) was above 50 µM.
As to `CN1CCCC1c1ccc(N/C=C2\C(=O)NC(=O)c3ccc(-c4cccs4)cc32)cc1` (stereo not shown) [Example 450, 4-{[4-(1-Methyl-pyrrolidin-2-yl)-phenylamino]-methylene}-6-thiophen-2-yl-4H-isoquinoline-1,3-dione], the IC50 was 0.18 µM on cyclin D1/cdk 4 enzyme (setting [1]); above 50 µM on cyclin E/CDK2 enzyme (setting [2]); 2.5 µM with MCF-7 (Homo sapiens, MCF7, 72 h); 2.8 µM in the experiment with LoVo (Homo sapiens, LoVo, 72 h); 2.5 µM in the experiment on HCT-116 (Homo sapiens, HCT-116, 72 h); 1.9 µM with BT474 (Homo sapiens, BT-474, 144 h). Further, the IC50 on cyclin B/CDK1 enzyme (setting [3]) was above 50 µM.
On to `CN1CCCC1c1ccc(N/C=C2\C(=O)NC(=O)c3ccc(-c4ccoc4)cc32)cc1` (stereo not shown) [Example 451, 6-Furan-3-yl-4-{[4-(1-methyl-pyrrolidin-2-yl)-phenylamino]-methylene}-4H-isoquinoline-1,3-dione], for which the IC50 on cyclin D1/cdk 4 enzyme (setting [1]) is 0.06 µM; on cyclin E/CDK2 enzyme (setting [2]), above 50 µM; in the experiment with MCF-7 (Homo sapiens, MCF7, 72 h), 1 µM; with LoVo (Homo sapiens, LoVo, 72 h), 2.5 µM; in the experiment with HCT-116 (Homo sapiens, HCT-116, 72 h), 2.8 µM; in the experiment on BT474 (Homo sapiens, BT-474, 144 h), 1 µM. Besides, the IC50 on cyclin B/CDK1 enzyme (setting [3]) was above 50 µM.
In the case of `Cn1ccc(CN/C=C2\C(=O)NC(=O)c3ccc(I)cc32)cc1=O` [Example 453, (4Z)-6-Iodo-4-({[(1-methyl-2-oxo-1,2-dihydropyridin-4-yl)methyl]amino}methylene)isoquinoline-1,3(2H,4H)-dione], the IC50 on cyclin D1/cdk 4 enzyme (setting [1]) was 0.06 µM; on cyclin E/CDK2 enzyme (setting [2]), 1 µM; with MCF-7 (Homo sapiens, MCF7, 72 h) it was 4.3 µM; with LoVo (Homo sapiens, LoVo, 72 h) it was 3.3 µM; in the experiment with HCT-116 (Homo sapiens, HCT-116, 72 h), 3.7 µM; in the experiment with BT474 (Homo sapiens, BT-474, 144 h), 4 µM. Besides, the IC50 on cyclin B/CDK1 enzyme (setting [3]) turned out to be 12.6 µM.
For `CN(C)CC1CCN(c2ccc(N/C=C3\C(=O)NC(=O)c4ccc(I)cc43)cc2)CC1` [Example 454, (4Z)-4-{[(4-{4-[(Dimethylamino)methyl]piperidin-1-yl}phenyl)amino]methylene}-6-iodoisoquinoline-1,3(2H,4H)-dione], the IC50 at cyclin D1/cdk 4 enzyme (setting [1]) was 0.36 µM; on cyclin E/CDK2 enzyme (setting [2]) it was above 50 µM; in the experiment with MCF-7 (Homo sapiens, MCF7, 72 h), 11.5 µM; in the experiment with LoVo (Homo sapiens, LoVo, 72 h), 10.5 µM; in the experiment with HCT-116 (Homo sapiens, HCT-116, 72 h) it was 7.4 µM; with BT474 (Homo sapiens, BT-474, 144 h), 10.5 µM. In addition, the half-maximal inhibitory concentration (IC50) at cyclin B/CDK1 enzyme (setting [3]) was above 50 µM.
Take `CN1CCC(N(C)CC2CCN(c3ccc(N/C=C4\C(=O)NC(=O)c5ccc(I)cc54)cc3)CC2)C1` (stereo not shown) [Example 455, (4Z)-6-Iodo-4-({[4-(4-{[methyl(1-methylpyrrolidin-3-yl)amino]methyl}piperidin-1-yl)phenyl]amino}methylene)isoquinoline-1,3(2H,4H)-dione]: the IC50 at cyclin D1/cdk 4 enzyme (setting [1]) was 5 µM; on cyclin E/CDK2 enzyme (setting [2]) it was above 50 µM; in the experiment on MCF-7 (Homo sapiens, MCF7, 72 h), 3.1 µM; in the experiment with LoVo (Homo sapiens, LoVo, 72 h) it was 3.3 µM; in the experiment on HCT-116 (Homo sapiens, HCT-116, 72 h), 2.4 µM; in the experiment on BT474 (Homo sapiens, BT-474, 144 h), 3.1 µM. Moreover, at cyclin B/CDK1 enzyme (setting [3]), the half-maximal inhibitory concentration (IC50) is above 50 µM.
As for `CCNCC1CCN(c2ccc(N/C=C3\C(=O)NC(=O)c4ccc(I)cc43)cc2)CC1` [Example 456, (4Z)-4-{[(4-{4-[(Ethylamino)methyl]piperidin-1-yl}phenyl)amino]methylene}-6-iodoisoquinoline-1,3(2H,4H)-dione], the IC50 was 0.47 µM on cyclin D1/cdk 4 enzyme (setting [4]); above 50 µM on cyclin E/CDK2 enzyme (setting [5]); 11 µM in the experiment on MCF-7 (Homo sapiens, MCF7, 72 h); 8.3 µM in the experiment with LoVo (Homo sapiens, LoVo, 72 h); 2.7 µM in the experiment on HCT-116 (Homo sapiens, HCT-116, 72 h); 9.2 µM in the experiment with BT474 (Homo sapiens, BT-474, 144 h). Moreover, the IC50 at cyclin B/CDK1 enzyme (setting [6]) was above 50 µM.
Regarding `CN1CCN(c2ccc(N/C=C3\C(=O)NC(=O)c4ccc(-c5ccoc5)cc43)c(F)n2)CC1` [Example 457, (4Z)-4-({[2-Fluoro-6-(4-methylpiperazin-1-yl)pyridin-3-yl]amino}methylene)-6-(3-furyl)isoquinoline-1,3(2H,4H)-dione], the IC50 on cyclin D1/cdk 4 enzyme (setting [4]) worked out at 0.19 µM; at cyclin E/CDK2 enzyme (setting [5]), 19.4 µM; in the experiment with MCF-7 it was 2.1 µM; in the experiment with LoVo it was 1 µM; in the experiment on HCT-116, 0.96 µM; in the experiment on BT474, 1.6 µM. Further, at cyclin B/CDK1 enzyme (setting [6]), the IC50 was determined as 24.2 µM.
In the case of `O=C1NC(=O)c2ccc(I)cc2/C1=C/Nc1ccc(C2CCCN2)cc1` (stereo not shown) [Example 462, 6-Iodo-4-[(4-pyrrolidin-2-yl-phenylamino)-methylene]-4H-isoquinoline-1,3-dione], the IC50 on cyclin D1/cdk 4 enzyme (setting [4]) was 0.42 µM; at cyclin E/CDK2 enzyme (setting [5]), above 50 µM; in the experiment on MCF-7 (Homo sapiens, MCF7, 72 h), 3.5 µM; in the experiment on LoVo (Homo sapiens, LoVo, 72 h), 3.6 µM; in the experiment on HCT-116 (Homo sapiens, HCT-116, 72 h), 2.6 µM; in the experiment on BT474 (Homo sapiens, BT-474, 144 h), 4.8 µM. Moreover, the IC50 at cyclin B/CDK1 enzyme (setting [6]) is above 50 µM.
As to `O=C1NC(=O)c2ccc(-c3ccoc3)cc2/C1=C/Nc1ccc(CN2CCC[C@H]2CO)cc1` [Example 463, 6-Furan-3-yl-4-{[4-(2-hydroxymethyl-pyrrolidin-1-ylmethyl)-phenylamino]-methylene}-4H-isoquinoline-1,3-dione], the IC50 is 0.06 µM on cyclin D1/cdk 4 enzyme (setting [4]); above 50 µM at cyclin E/CDK2 enzyme (setting [5]); 0.9 µM in the experiment with MCF-7 (Homo sapiens, MCF7, 72 h); 2 µM in the experiment with LoVo (Homo sapiens, LoVo, 72 h); 2.3 µM with HCT-116 (Homo sapiens, HCT-116, 72 h); 1.7 µM with BT474 (Homo sapiens, BT-474, 144 h). In addition, the IC50 on cyclin B/CDK1 enzyme (setting [6]) was above 50 µM.
In the case of `O=C1NC(=O)c2ccc(I)cc2/C1=C/Nc1ccc(C2CCCN2CCO)cc1` (stereo not shown) [Example 464, 4-({4-[1-(2-Hydroxy-ethyl)-pyrrolidin-2-yl]-phenylamino}-methylene)-6-iodo-4H-isoquinoline-1,3-dione], the IC50 at cyclin D1/cdk 4 enzyme (setting [4]) was 0.14 µM; on cyclin E/CDK2 enzyme (setting [5]), above 50 µM; in the experiment on MCF-7 (Homo sapiens, MCF7, 72 h), 2.4 µM; in the experiment with LoVo (Homo sapiens, LoVo, 72 h), 4.6 µM; with HCT-116 (Homo sapiens, HCT-116, 72 h), 3.2 µM; in the experiment with BT474 (Homo sapiens, BT-474, 144 h), 6.6 µM. In addition, the IC50 at cyclin B/CDK1 enzyme (setting [6]) was above 50 µM.
Turning to `CCN1CCCC1c1ccc(N/C=C2\C(=O)NC(=O)c3ccc(I)cc32)cc1` (stereo not shown) [Example 465, 4-{[4-(1-Ethyl-pyrrolidin-2-yl)-phenylamino]-methylene}-6-iodo-4H-isoquinoline-1,3-dione], the IC50 at cyclin D1/cdk 4 enzyme (setting [4]) is 0.18 µM; on cyclin E/CDK2 enzyme (setting [5]), 22 µM; in the experiment with MCF-7 (Homo sapiens, MCF7, 72 h), 1.3 µM; in the experiment on LoVo (Homo sapiens, LoVo, 72 h), 5 µM; in the experiment with HCT-116 (Homo sapiens, HCT-116, 72 h), 2.9 µM; in the experiment on BT474 (Homo sapiens, BT-474, 144 h), 3.8 µM. For the same molecule, the IC50 on cyclin B/CDK1 enzyme (setting [6]) is above 50 µM.
For `O=C1NC(=O)c2ccc(-c3ccco3)cc2/C1=C/Nc1ccc(CN2CCC[C@H]2CO)cc1` [Example 466, 6-Furan-2-yl-4-{[4-(2-hydroxymethyl-pyrrolidin-1-ylmethyl)-phenylamino]-methylene}-4H-isoquinoline-1,3-dione], the IC50 on cyclin D1/cdk 4 enzyme (setting [4]) was 0.13 µM; at cyclin E/CDK2 enzyme (setting [5]), above 50 µM; in the experiment with MCF-7 (Homo sapiens, MCF7, 72 h), 1.2 µM; with LoVo (Homo sapiens, LoVo, 72 h), 2.1 µM; in the experiment on HCT-116 (Homo sapiens, HCT-116, 72 h), 2.1 µM; with BT474 (Homo sapiens, BT-474, 144 h), 1.4 µM. Besides, the IC50 on cyclin B/CDK1 enzyme (setting [6]) was above 50 µM.
